The text below walks through data of US8460932B2, “Method of treating a disorder by suicide gene therapy” (priority 1999, dated 2013).

This test has as its system brains of rodents. The test is described as follows: Expression, distribution and longevity of transgene in brain after intrastriatal vector injection (immunohistochemistry). The class given is in vivo, Lewis rat. To be noted: GCV 25 mg/kg i.p. twice daily for 7 days vs saline after RAd 128; 1 month to 1 year. The method, then: UK. […] Antibodies were diluted in 1% NHS in TBS.
Groups of animals were then perfused 1 month, 3 months, 5 months, or 12 months later. Animals were perfusion-fixed and brains were cut in serial sections.
To assess the effects of HSV-1 TK on the expression another transgene, lacZ, a combination of either RAd TK+RAd HPRT or RAd 35+RAd HPRT or RAd 35+RAd TK was injected into the mid striatum of 9 rats (3 rats per group). The total vector dose was 8×10^7 iu (i.e. 4×10^7 iu per vector).

`Nc1nc(O)c2ncn(COC(CO)CO)c2n1` [GCV, ganciclovir]: the “Effect on the maintenance of HSV1-TK immunoreactivity in the rodent brain” value is “no effect”.
